| melting point [°C] | SMILES |
| --- | --- |
| 141 to 142 | CS(=O)(=O)c1ccc(-n2cncc2-c2ccc(OC(F)(F)F)cc2)cc1 |
| 105 to 107 | CCN(CC)CCNC(=O)c1ccc2cc(I)ccc2c1 |
| 167 to 169 | COc1cccc(C2NC(=O)N(C(C)C)c3cc(C)ccc32)c1 (centres undefined) |
| 189 to 190 | Cc1ccc(-c2ccc(OC3SCC(O)C(O)C3O)c(F)n2)cn1 (centres undefined) |
| 97 to 98 | CCOC(=O)c1ccc2cccc(N)c2c1 |
| 350 to 355 | CCCCn1c(=O)c2nc(-c3ccc(/C=C/C(=O)O)cc3)[nH]c2n(CCCC)c1=O |
| 208 to 209 | CC(C)C1(C)N=C(c2nc3ccc(OC(F)F)cc3cc2C(=O)O)NC1=O (centres undefined) |
| 225 to 226 | Cc1ncn(-c2nc(-c3ccc(Cl)cc3)c(CCC(=O)O)o2)c1C |
| 163 to 164 | CCCc1c(OC(C(=O)O)c2ccc(Cl)cc2)ccc(C(C)=O)c1O (centres undefined) |
| 151 | CCOc1ccc2[nH]c(=O)n(C3Cc4ccccc4C3)c2c1 |
| 200 to 202 | O=[N+]([O-])c1ccc2c(c1)nc(/C=C/c1ccccc1)n2-c1ccccn1 |
| 192 | N#Cc1nc2ccc(Oc3ccc(C(F)(F)F)cc3Cl)cc2[nH]1 |
| 95 to 96 | COc1ccc2c(c1)/C(=C/C#N)CC2 |
| 262 to 264 | Cc1ccc(NC(=O)c2c(Cl)cccc2Cl)c2nccc(N3CCN(C)C3=O)c12 |
| 169 to 170 | Nc1cc(-c2ccc(Cl)c(Cl)c2)[nH]n1 |
| 106 to 108 | Cc1ccccc1OCc1ccccc1I |
| 248 to 249 | C/C(=N\O)c1cccc(Nc2c3ccccc3nc3occc23)c1 |
| 140 to 142 | COc1ccc(-c2ocnc2-c2cc(OC)c(F)c(OC)c2)cc1N |
| 152 to 153 | CC1(C)CCc2c1ccc1c2CCc2cc(O)ccc2-1 |
| 120 | O=c1oc2ccccc2nc1-c1cc(O)c(O)c([N+](=O)[O-])c1 |
| 250 | O=C(O)c1ccc(-c2cnc3c(c2)N(Cc2ccccc2OC(F)(F)F)CCN3)cc1 |
| 145 to 146 | CC1CCN(c2nccc(Oc3ccc(NC(=O)c4cc(F)cc(N5CCCCC5)c4)c4ccccc34)n2)CC1 |
| 166 to 167 | CCn1c(=O)n(OCc2ccccc2)c(=O)c2cc(F)c(N3CCNCC3)cc21 |
| 189 to 190 | O=Cc1ccc(-c2ccccc2-c2nnn[nH]2)cc1 |

| melting point [°C] | SMILES |
| --- | --- |
| 235 to 238 | Cc1ccc(NC(=O)c2ccc(CN3CCNC(C(N)=O)C3)c(C(F)(F)F)c2)cc1Nc1nccc(-c2cncnc2)n1 (centres undefined) |
| 189 to 190 | CCc1cc(Cl)c(-n2ncc(C#N)c2N)c(Cl)c1 |
| 53 to 54 | COC(=O)CCc1cnoc1-c1ccc(Cl)c(F)c1 |
| 189 to 191 | c1cn(Cc2ccc(OCc3nnn[nH]3)cc2)cn1 |
| 197 to 198 | Brc1c(NC2=NCCN2)ccc2c1ncn2Cc1ccccc1 |
| 243 to 245 | O=C1Cc2cccc(S(=O)c3ccccc3Cl)c2N1 (centres undefined) |
| 167 to 169 | C/C(=N\OCCOc1ccc(C(=O)O)cc1Cl)c1ccc(C(C)(C)C)cc1 |
| 186 to 188 | O=C1c2cc3cc(O)ccc3n2CC1CC1CCN(Cc2ccccc2)CC1 (centres undefined) |
| 155 | N#Cc1ccc(-c2cn(-c3ccc(OC(F)(F)F)cc3)cn2)cc1 |
| 208 to 209 | O=S(=O)(CCO)c1cc2c(Nc3cccc(Br)c3)ncnc2cn1 |
| > 220 | COc1cc2c(cc1C(F)(F)F)N(C(=O)Nc1cccc(C(=O)Nc3cccnc3)c1)CC2 |
| 117 to 120 | Cc1ccc2c3c(ccc2n1)OC[C@H](CNCCCc1csc2ccc(F)cc12)O3 |
| 224 | COc1ccc(N2CCN(c3ccc(-n4ccn(CC(F)(F)F)c4=O)cc3)CC2)cc1 |
| 191 to 194 | NS(=O)(=O)c1cc(C(=O)O)cc(NC/C=C/CBr)c1Oc1ccccc1 |
| 178 to 183 | CNC(=O)c1ccccc1Nc1nc(Nc2ccc3c(c2)CCN(CCOC)CC3)ncc1Cl |
| 219 | COc1cc(C(=O)c2nc(C#N)c3ccccn23)ccc1[N+](=O)[O-] |
| 205 to 207 | CC(O)(c1nc2ccc(I)cc2c(=O)[nH]1)C(F)(F)F (centres undefined) |
| 167 to 170 | CNc1c([N+](=O)[O-])ccc(Cl)c1C#N |
| 208 | CC(C)(C#N)c1c(Cl)cc(N)cc1Cl |
| 165 to 175 | O=C(O)CCc1cc2cc(Cl)ccc2n1S(=O)(=O)c1cccc2ccccc12 |
| 66 to 68 | Cc1nc(CSc2cccc(Cl)c2Cl)no1 |
| 139 | O=C(O)Cc1ccc(OCc2ccccc2)cc1OCc1ccccc1 |
| 115 to 116 | COc1cc(OC)c2nccc(Cl)c2c1 |

Second part, the compound before the results:

| SMILES | melting point [°C] |
| --- | --- |
| CC(=O)OC1CC2(C)C(=O)CCC2C2C(C)CC3=CC(=O)CCC3C12 (centres undefined) | 183 |
| COC(=O)NCC1CN(c2ccc(-n3cnc(Cn4ccnc4)c3)c(F)c2)C(=O)O1 (centres undefined) | 78 to 80 |
| COCC1OC(n2cnc3c(NC4CCCC4)nc(Cl)nc32)C(O)C1O (centres undefined) | 124 to 126 |
| OC(=S)CCc1ccccc1 | 60 |
| C#CC1(Oc2ccc(F)cc2[N+](=O)[O-])CCN(C)CC1 | 70 to 73 |
| C[Si](C)(C)C#CCCCn1ncc(C#N)c1N | 125 to 127 |
| CC(C)(C)c1cc(SCCO)cc(C(C)(C)C)c1O | 66 |
| CCOC(=O)C(=O)c1c[nH]c2ccc(Br)cc12 | 182 to 183 |
| Nc1ccc(Nc2c(NCC3CCCO3)cc(C(=O)O)cc2S(N)(=O)=O)cc1 (centres undefined) | 253 |
| O=S(=O)(c1ccc(Cl)cc1)c1ccc(-c2ccccc2)cc1 | 169 |
| CCCCC1OC(=O)c2cc(NC3CCCCC3)ccc21 (centres undefined) | 123 to 124 |
| CCc1cnc2c(NC(=O)c3c(Cl)cccc3Cl)cccc2c1CC(=O)NCc1ccccn1 | 162 to 163 |
| O=C(NCCO)c1csc(-c2cccc([N+](=O)[O-])c2)n1 | 145 to 146 |
| O=C(Nc1ccc(F)cc1)NN1CCN(C(=O)Cn2c(=O)sc3ccc(Cl)cc32)CC1 | > 250 |
| Cc1ccc(C(O)(Cn2ccnc2)C(C)(C)C)cc1 (centres undefined) | 135 to 137 |
| COc1ccc(N)cc1C12CC3CC(CC(C3)C1)C2 | 140 to 141 |
| CCN(CC)c1cccc(N(CC)CC)c1C(=O)O | 112 to 114 |
| Cc1nc2c(cc1C(=O)NC(=N)N)CCCCC2O (centres undefined) | 207 to 210 |
| Cc1cccc(C(N)c2ccc(OCCOc3ccc(C(N)c4cccc(C)c4)cc3)cc2)c1 (centres undefined) | 113 to 115 |

| SMILES | melting point [°C] |
| --- | --- |
| O=[N+]([O-])c1cc(Cl)ccc1-n1cccc1 | 55 to 56 |
| CS(=O)(=O)c1ccc(C(CC2CCCCC2)C(=O)O)cc1 (centres undefined) | 139 to 143 |
| CCCSC1=Nc2ccccc2SN1 | 168 to 170 |
| O=C(CCl)Nc1csc(NC(=O)CCl)n1 | 188 to 192 |
| N#Cc1ccc(Oc2c(Cl)cc(Cl)cc2Cl)cc1Cl | 108 to 116 |
| CCCCOC(=O)[C@H]1CN(c2cc(F)c(N3CCOCC3)c(F)c2)C(=O)O1 | 99 to 100 |
| Cn1nc(O)cc1C(F)(F)C(F)(F)F | 119 to 124 |
| CCCCc1oc2ccccc2c1-c1ccc(-c2ccc(OCC(=O)O)cc2)cc1 | 126 to 128 |
| CC(=O)NC[C@H]1CN(c2ccc(N3CCC(n4cccc4)CC3)c(F)c2)C(=O)O1 | 208 to 210 |
| FC(F)(F)C1(c2cc(Cl)cc(Cl)c2)CC(c2ccc(-c3cn[nH]c3)c3ccccc23)=NO1 (centres undefined) | 117 to 120 |
| Cc1ncc2n1-c1ccc(Br)cc1C(c1ccccn1)=NC2 | 189 to 190 |
| CS(=O)(=O)OCC1(c2ccc(Cl)cc2)CCC1 | 66 to 70 |
| Cc1c(-c2ccccc2)oc2c(C(=O)N(C)CCO)cccc2c1=O | 128 to 130 |
| Cc1c(CC(=O)NCCO[N+](=O)[O-])cc(-c2ccc(S(C)(=O)=O)cc2)n1-c1ccc(F)cc1 | 135 |
| CN1CCC(c2c[nH]c3ccc(/C=C/C(N)=O)cc23)CC1 | 82 to 83.5 |
| COC(=O)CC1=C(C)C(O)c2ccc(C#N)cc21 (centres undefined) | 70 to 75 |
| Cc1c(Cl)cc(NC(=O)C(=O)Nc2cc(Cl)c(C)c(Cl)c2O)c(O)c1Cl | 330 |
| CC1Nc2cc(N(C)C(=O)c3ccc(-c4ccccc4)cc3)ccc2N1C (centres undefined) | 213 to 214 |
| CC(=O)N1CCC(CCC(=O)c2ccc(N(C)C)cc2)CC1 | 158 to 160 |

| SMILES | melting point [°C] |
| --- | --- |
| O=C1C(=Cc2ccccc2)c2ccccc2N1C1=NCCS1 | 120 to 125 |
| Cc1cc2c(c(C(=O)O)c1)OCC2 | 177 to 179 |
| NC(=O)c1ccc(F)c2c1OCC=C2 | 152 to 154 |
| CCOC(=O)Cc1ccc(NC(=O)C(COS(C)(=O)=O)NS(=O)(=O)c2ccc(I)cc2)cc1 (racemic) | 160 to 162 |
| C1=C(c2ccc3[nH]ccc3c2)CCN(Cc2c[nH]c3ncccc23)C1 | 187 to 189 |
| Cc1c(O)cccc1C(=O)N[C@@H](Cc1ccccc1)[C@H](O)C(=O)N1CSC(C)(C)[C@H]1C(=O)N[C@H]1C=CCCC1 | 193 to 195 |
| CN(Cc1ccc(NC(=O)C2=Cc3cc(-c4ccc5c(c4)OCO5)ccc3S(=O)(=O)CC2)cc1)C1CCC(=O)CC1 | 219 to 223 |
| CC(=O)Nc1ccc(C2=NNC(=O)CC2)cc1[N+](=O)[O-] | 223 |
| CS(=O)(=O)c1nccn1CC(=O)O | 218 to 219 |
| CCOC(=O)N1CCN(C(=O)Cn2c(-c3ccc(Cl)cc3)nc3cccnc32)CC1 | 184 to 186 |
| CCC(CC)Nc1nnc(-c2ccccc2)c2ccccc12 | 210 |
| CCOC(=O)C(N)c1c[nH]c2c(CC)cccc12 (centres undefined) | 120 to 122 |
| Cc1[nH]cnc1CSCCN=C(NCCCc1c[nH]cn1)NC(=O)c1ccccc1 | 98.5 to 100 |
| CCC(=O)N[C@@H](C)C(=O)N1CCC[C@H]1C(=O)O | 169 to 171 |
| CCOCCOc1cc(C(O)C#Cc2ccc(C(=O)O)c(O)c2)cc2c1C(C)(C)CCC2(C)C (centres undefined) | 120 |
| CC(C)C(=O)OC1C(CO)OC(n2cnc3c(N)ncnc32)C1OC(=O)C(C)C (centres undefined) | 207 to 208 |
| Cc1cc(-c2ccccc2)nc2nc(SCc3ccccc3)nn12 | 154 to 155 |
| C=CCC=CCC=CCCCCCCCc1cccc(O)c1 | 60 |
| CN(C(=O)CN(C(=O)CNC(=O)Nc1cccc(/C=C/CO)c1)c1ccccc1)c1ccccc1 | 85 |

From a melting point compilation (Tetko et al.; mined from patent text by program, amines drawn as free bases though some values may be those of a salt)
